How the values were obtained:
[1] = molecular target: T1, Human P2Y12 receptor (Homo sapiens, UniProt Q9H244); test: Human P2Y12 receptor cell membrane binding assay with [3H] 2-Mes-ADP; conditions: 1 nM [3H] 2-Mes-ADP, membranes of HEK cells expressing P2Y12 receptor; read-out: Binding activity (IC50)
T1 construct: expressed in transfected cells; host or cells: HEK cells
Method in brief: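 Competition binding used 1 nM [3H]2-MeS-ADP on P2Y12-expressing HEK cell membranes for 1 h at room temperature, followed by filtration and scintillation counting.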

[2] = tested on: Human platelet aggregation caused by ADP; test: Inhibition of ADP-induced platelet aggregation (Mimic-human PRP); format: cell-based; conditions: 20 μM ADP; for Ki: human platelet concentrate diluted with PPP, absorption at 595 nm
Method in brief: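 Ki came from non-linear sigmoidal fits of inhibition, measured as the 3-min rise in absorbance at 595 nm after 20 μM ADP, relative to 0/20 μM ADP controls. Platelets (3–4×10^8/mL in PPP-diluted human PRP) were exposed to 0.01–30 μM compound for 20 min at room temperature beforehand.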

T1 sequence (Q9H244 whole entry): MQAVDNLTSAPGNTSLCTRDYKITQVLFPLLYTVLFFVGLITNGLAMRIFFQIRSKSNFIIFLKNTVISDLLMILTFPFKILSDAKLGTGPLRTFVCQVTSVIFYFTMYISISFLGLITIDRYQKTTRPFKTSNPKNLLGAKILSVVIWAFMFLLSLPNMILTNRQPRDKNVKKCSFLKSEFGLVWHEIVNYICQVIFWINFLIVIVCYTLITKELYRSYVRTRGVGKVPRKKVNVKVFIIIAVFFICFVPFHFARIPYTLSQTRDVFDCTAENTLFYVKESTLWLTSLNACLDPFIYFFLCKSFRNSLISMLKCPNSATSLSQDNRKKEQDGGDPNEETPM

CCCc1cc2c(N3CCn4c(nnc4C(F)(F)C(F)(F)F)C3)nc(N3CCN(C)CC3)nc2s1 [Example 6-6, 7-[2-(4-Methyl-piperazin-1-yl)-6-propyl-thieno[2,3-d]pyrimidin-4-yl]-3-pentafluoroethyl-5,6,7,8-tetrahydro-[1,2,4]triazolo[4,3-a]pyrazine]
IC50 [1]: 315 nM | inhibition at 40 µM ([2]; Homo sapiens, Platelet, 40 μM compound): 49%

CCCc1cc2c(N3CCn4c(nnc4C(F)(F)C(F)(F)F)C3)nc(NCCO)nc2s1 [Example 6-7, 2-[4-(3-Pentafluoroethyl-5,6-dihydro-8H-[1,2,4]triazolo[4,3-a]pyrazin-7-yl)-6-propyl-thieno[2,3-d]pyrimidin-2-ylamino]-ethanol]
IC50 [1]: 490 nM | Ki [2]: 407 nM

CCCc1cc2c(N3CCn4c(nnc4C(F)(F)C(F)(F)F)C3)nc(OCC(O)CO)nc2s1 (stereo not shown) [Example 6-8, 3-[4-(3-Pentafluoroethyl-5,6-dihydro-8H-[1,2,4]triazolo[4,3-a]pyrazin-7-yl)-6-propyl-thieno[2,3-d]pyrimidin-2-yloxy]-propane-1,2-diol]
IC50 [1]: 130 nM | Ki [2]: 95 nM

CCCc1cc2c(N3CCn4c(nnc4C(F)(F)C(F)(F)F)C3)nc(OCCO)nc2s1 [Example 6-9, 2-[4-(3-Pentafluoroethyl-5,6-dihydro-8H-[1,2,4]triazolo[4,3-a]pyrazin-7-yl)-6-propyl-thieno[2,3-d]pyrimidin-2-yloxy]-ethanol]
IC50 [1]: 120 nM | Ki [2]: 30 nM

CCc1cc2c(N3CCn4c(C)nnc4C3)nc(N3CCNC(=O)C3)nc2s1 [Example 6-12, 4-[6-Ethyl-4-(3-methyl-5,6-dihydro-8H-[1,2,4]triazolo[4,3-a]pyrazin-7-yl)-thieno[2,3-d]pyrimidin-2-yl]-piperazin-2-one]
IC50 [1]: 760 nM | Ki [2]: 809 nM

CCc1cc2c(N3CCn4c(C)nnc4C3)nc(OCC(O)CO)nc2s1 (stereo not shown) [Example 6-13, 3-[6-Ethyl-4-(3-methyl-5,6-dihydro-8H-[1,2,4]triazolo[4,3-a]pyrazin-7-yl)-thieno[2,3-d]pyrimidin-2-yloxy]-propane-1,2-diol]
IC50 [1]: 2460 nM | Ki [2]: 716 nM

CCCc1cc2c(N3CCn4c(C)nnc4C3)nc(N3CCNC(=O)C3)nc2s1 [Example 6-14, 4-[4-(3-Methyl-5,6-dihydro-8H-[1,2,4]triazolo[4,3-a]pyrazin-7-yl)-6-propyl-thieno[2,3-d]pyrimidin-2-yl]-piperazin-2-one]
IC50 [1]: 322 nM | Ki [2]: 260 nM

CCCc1cc2c(N3CCn4c(C)nnc4C3)nc(OCC(O)CO)nc2s1 (stereo not shown) [Example 6-15, 3-[4-(3-Methyl-5,6-dihydro-8H-[1,2,4]triazolo[4,3-a]pyrazin-7-yl)-6-propyl-thieno[2,3-d]pyrimidin-2-yloxy]-propane-1,2-diol]
IC50 [1]: 400 nM | Ki [2]: 190 nM

CCCc1cc2c(N3CCn4c(C)nnc4C3)nc(OCCO)nc2s1 [Example 6-16, 2-[4-(3-Methyl-5,6-dihydro-8H-[1,2,4]triazolo[4,3-a]pyrazin-7-yl)-6-propyl-thieno[2,3-d]pyrimidin-2-yloxy]-ethanol]
IC50 [1]: 310 nM | Ki [2]: 61 nM

CCCc1cc2c(N3CCn4c(C)nnc4C3)nc(OCCCO)nc2s1 [Example 6-17, 3-[4-(3-Methyl-5,6-dihydro-8H-[1,2,4]triazolo[4,3-a]pyrazin-7-yl)-6-propyl-thieno[2,3-d]pyrimidin-2-yloxy]-propan-1-ol]
IC50 [1]: 750 nM | Ki [2]: 400 nM

CCCc1cc2c(N3CCn4c(C)nnc4C3)nc(OCC(CO)CO)nc2s1 [Example 6-18, 2-[4-(3-Methyl-5,6-dihydro-8H-[1,2,4]triazolo[4,3-a]pyrazin-7-yl)-6-propyl-thieno[2,3-d]pyrimidin-2-yloxymethyl]-propane-1,3-diol]
IC50 [1]: 670 nM | Ki [2]: 300 nM

From patent publication US20110166121A1 (LG LIFE SCIENCES LTD., priority 2008, published 2011)
